Source: PMC11887212 (Journal of Hematology & Oncology, 2025)

Molecular target: sorcin (Homo sapiens, UniProt P30626)
Assay: SPR
Type: binding

Sequence of sorcin (P30626 whole entry): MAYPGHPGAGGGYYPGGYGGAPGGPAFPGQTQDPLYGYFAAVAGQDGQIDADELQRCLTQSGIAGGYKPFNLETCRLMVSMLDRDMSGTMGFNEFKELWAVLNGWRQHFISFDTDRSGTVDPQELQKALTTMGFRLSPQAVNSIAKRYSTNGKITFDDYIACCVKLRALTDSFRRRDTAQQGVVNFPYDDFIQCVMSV

SMILES: CC1=C(O)C(=O)C=C2C1=CC=C1[C@@]2(C)CC[C@@]2(C)[C@@H]3C[C@](C)(C(=O)O)CC[C@]3(C)CC[C@]12C [compound 1, celastrol]
- Kd: 2.13 µM
